The target of one data set is recombinant human ACC1 (Homo sapiens (Human), UniProt Q13085). As to the kind of experiment: Inhibition of enzymatic activity of ACC1 (ADP-Glo chemiluminescence). The settings on record: recombinant human ACC1 protein 2 nM, ATP 20 μM, acetyl-CoA 10 μM, NaHCO3 30 mM. The format is biochemical. Here is the method:
(§1) The degree of inhibition of the enzymatic activity of recombinant human ACC1, ACC2 proteins under in-vitro conditions by the preferred compounds of the present disclosure is determined by the following method.
The principle of the method was based on the reaction of ACC protein-catalyzed acetyl-CoA to form malonyl-CoA. ATP was consumed during this reaction and ADP was produced. The produced ADP was reconverted into ATP by using ADP-Glo™ Kinase Kit from Promega. This part of ATP reacted with the luciferase-fluorescence in the kit, and generated chemiluminescent signals. Thus, by measuring the intensity of chemiluminescent signal, the amount of ADP produced in the catalytic reaction was reflected, thereby indirectly determining the enzymatic activity of ACC protein and the effect of the tested compound on the enzymatic activity. The main reagents used included ACC1, ACC2 proteins (purchased from BPS bioscience, ACC1 Art. No. 50200, ACC2 Art. No. 50201), acetyl-CoA (acetyl-CoA, purchased from Sigma, Art. No. A2056), NaHCO3 (purchased from Sigma, Art. No. S6014), ADP-Glo™ Kinase assay kit (purchased from Promega, Art. No. V9102).
The test procedure was briefly described as follows: firstly, a 1× buffer solution required for the reaction was prepared, comprising: 50 mM HEPES (pH7.4 purchased from Invitrogen, Art. No. 15630), 2 mM magnesium chloride (MgCl2, purchased from Sigma, Art. No. M1028), 2 mM potassium citrate (Potassium citrate, purchased from Sigma, Art. No. 89306), 0.01% Brij-35 detergent (purchased from Merck, Art. No. 203728), 2 mM DTT (purchased from Sigma, Art. No. D0632). The test compound powder was dissolved in DMSO to prepare a stock solution having a concentration of 10 mM, followed by three-fold dilution to prepare the concentration required for the test, and each compound was set at 10 concentration points ranging from 10 μm to 0.5 nM. Firstly, appropriate amount of ACC protein (2 nM) was added to a 384-well microplate, and then diluted test compound solutions were added to each well. A duplicate well was provided at each concentration, and a solution control group (blank group) and a negative control group (DMSO group) were set at the same time. The 384-well plates were then shaken on a microwell plate oscillator and incubated for 15 minutes at room temperature. Thereafter, a substrate mixture containing ATP, acetyl-CoA and NaHCO3 which was diluted with the aforementioned buffer solution was added to each well to start the reaction, and the final concentrations of the three components were respectively ATP 20 μM, acetyl-CoA 10 μM, and NaHCO3 30 mM. After reacting for 30 minutes at room temperature, the corresponding reaction solution and detection solution were added to each well according to the method in the specification of ADP-Glo™ Kinase assay kit (referring to the specification of the kit for specific methods). Finally, the relative light unit (RLU) values of each well were tested using an Envision 2104 multi-function microplate reader (Perkin Elmer). The percentage inhibition rate of a compound at a concentration on ACC enzyme activity was calculated by the following formula: Inhibition rate %=[(RLU average value of negative control wells−RLU average value of blank control wells)−(RLU average values of test wells−RLU average values of blank control wells)]/(RLU average values of negative control wells−RLU average values of blank control wells)*100
Finally, nonlinear regression analysis of the logarithm of the concentration of the compound and the percentage inhibition rate of the corresponding concentration was carried out in the GraphPad Prism5 software to obtain the half maximal inhibitory concentration (IC50) of the compound.

A further data set concerns the target recombinant human ACC2 (Homo sapiens (Human), UniProt O00763). Put plainly: Inhibition of enzymatic activity of ACC2 (ADP-Glo chemiluminescence). The format is biochemical. The settings on record: recombinant human ACC2 protein 2 nM, ATP 20 μM, acetyl-CoA 10 μM, NaHCO3 30 mM. Here is the method:
as §1
The principle of the method was based on the reaction of ACC protein-catalyzed acetyl-CoA to form malonyl-CoA. ATP was consumed during this reaction and ADP was produced. The produced ADP was reconverted into ATP by using ADP-Glo™ Kinase Kit from Promega. This part of ATP reacted with the luciferase-fluorescence in the kit, and generated chemiluminescent signals. […]
The test procedure was briefly described as follows: firstly, a 1× buffer solution required for the reaction was prepared, comprising: 50 mM HEPES (pH7.4 purchased from Invitrogen, Art. No. 15630), 2 mM magnesium chloride (MgCl2, purchased from Sigma, Art. No. M1028), 2 mM potassium citrate (Potassium citrate, purchased from Sigma, Art. No. 89306), 0.01% Brij-35 detergent (purchased from Merck, Art. No. 203728), 2 mM DTT (purchased from Sigma, Art. No. D0632). […] Finally, the relative light unit (RLU) values of each well were tested using an Envision 2104 multi-function microplate reader (Perkin Elmer). […]
(In general: ADP-Glo first removes unused ATP, then detects ADP through luciferase.)

Data set [1] is described as follows: Oral pharmacokinetic research in SD rats (plasma and liver, LC/MS/MS). The settings on record: male, Sprague-Dawley (SD), rat, intragastric, 10 mg/kg. The format is in vivo. Here is the method: SD rat was used as the experimental animal. The drug concentrations in plasma and liver at different times were tested after the rats were intragastrically administered with the compound of Example 19 by LC/MS/MS methods, so as to research the pharmacokinetic characteristics of compound of present disclosure in rats.
An appropriate amount of experimental drug was weighed, and 0.5% sodium carboxymethylcellulose (CMC-Na) was added, and the mixture was milled to prepare a 1 mg/mL suspension;
6 healthy adult male rats were divided into 2 groups, fasted overnight and respectively intragastrically administered with the drug at a dosage of 10 mg/kg, at a volume of 10 mL/kg. The rats were feed 2 h after the administration.
Blood was collected by jugular vein puncture, and about 0.25 mL was collected for each sample, which was anticoagulated by using heparin sodium, and the samples were placed on ice after collection. The time points of blood collection were as follows:
The first group of animals: blood collection time: before administration, and 0.083 h, 0.25 h, 0.5 h, 1 h, 2 h, 4 h, 6 h, 8 h and 24 h after administration.
The second group of animals: the animals were euthanized 0.5 h after administration, and the liver tissues were collected, 3 rats/time point.
Blood samples were collected and placed on ice, and plasma was separated by centrifugation (centrifugation conditions: 8000 rpm, 6 min, 2-8° C.). The collected plasma was stored at −80° C. before analysis.
The content of the test compound in the plasma and liver of the rats after intragastrically administration was analyzed by LC-MS/MS.

Sequence of recombinant human ACC2 (O00763 whole entry): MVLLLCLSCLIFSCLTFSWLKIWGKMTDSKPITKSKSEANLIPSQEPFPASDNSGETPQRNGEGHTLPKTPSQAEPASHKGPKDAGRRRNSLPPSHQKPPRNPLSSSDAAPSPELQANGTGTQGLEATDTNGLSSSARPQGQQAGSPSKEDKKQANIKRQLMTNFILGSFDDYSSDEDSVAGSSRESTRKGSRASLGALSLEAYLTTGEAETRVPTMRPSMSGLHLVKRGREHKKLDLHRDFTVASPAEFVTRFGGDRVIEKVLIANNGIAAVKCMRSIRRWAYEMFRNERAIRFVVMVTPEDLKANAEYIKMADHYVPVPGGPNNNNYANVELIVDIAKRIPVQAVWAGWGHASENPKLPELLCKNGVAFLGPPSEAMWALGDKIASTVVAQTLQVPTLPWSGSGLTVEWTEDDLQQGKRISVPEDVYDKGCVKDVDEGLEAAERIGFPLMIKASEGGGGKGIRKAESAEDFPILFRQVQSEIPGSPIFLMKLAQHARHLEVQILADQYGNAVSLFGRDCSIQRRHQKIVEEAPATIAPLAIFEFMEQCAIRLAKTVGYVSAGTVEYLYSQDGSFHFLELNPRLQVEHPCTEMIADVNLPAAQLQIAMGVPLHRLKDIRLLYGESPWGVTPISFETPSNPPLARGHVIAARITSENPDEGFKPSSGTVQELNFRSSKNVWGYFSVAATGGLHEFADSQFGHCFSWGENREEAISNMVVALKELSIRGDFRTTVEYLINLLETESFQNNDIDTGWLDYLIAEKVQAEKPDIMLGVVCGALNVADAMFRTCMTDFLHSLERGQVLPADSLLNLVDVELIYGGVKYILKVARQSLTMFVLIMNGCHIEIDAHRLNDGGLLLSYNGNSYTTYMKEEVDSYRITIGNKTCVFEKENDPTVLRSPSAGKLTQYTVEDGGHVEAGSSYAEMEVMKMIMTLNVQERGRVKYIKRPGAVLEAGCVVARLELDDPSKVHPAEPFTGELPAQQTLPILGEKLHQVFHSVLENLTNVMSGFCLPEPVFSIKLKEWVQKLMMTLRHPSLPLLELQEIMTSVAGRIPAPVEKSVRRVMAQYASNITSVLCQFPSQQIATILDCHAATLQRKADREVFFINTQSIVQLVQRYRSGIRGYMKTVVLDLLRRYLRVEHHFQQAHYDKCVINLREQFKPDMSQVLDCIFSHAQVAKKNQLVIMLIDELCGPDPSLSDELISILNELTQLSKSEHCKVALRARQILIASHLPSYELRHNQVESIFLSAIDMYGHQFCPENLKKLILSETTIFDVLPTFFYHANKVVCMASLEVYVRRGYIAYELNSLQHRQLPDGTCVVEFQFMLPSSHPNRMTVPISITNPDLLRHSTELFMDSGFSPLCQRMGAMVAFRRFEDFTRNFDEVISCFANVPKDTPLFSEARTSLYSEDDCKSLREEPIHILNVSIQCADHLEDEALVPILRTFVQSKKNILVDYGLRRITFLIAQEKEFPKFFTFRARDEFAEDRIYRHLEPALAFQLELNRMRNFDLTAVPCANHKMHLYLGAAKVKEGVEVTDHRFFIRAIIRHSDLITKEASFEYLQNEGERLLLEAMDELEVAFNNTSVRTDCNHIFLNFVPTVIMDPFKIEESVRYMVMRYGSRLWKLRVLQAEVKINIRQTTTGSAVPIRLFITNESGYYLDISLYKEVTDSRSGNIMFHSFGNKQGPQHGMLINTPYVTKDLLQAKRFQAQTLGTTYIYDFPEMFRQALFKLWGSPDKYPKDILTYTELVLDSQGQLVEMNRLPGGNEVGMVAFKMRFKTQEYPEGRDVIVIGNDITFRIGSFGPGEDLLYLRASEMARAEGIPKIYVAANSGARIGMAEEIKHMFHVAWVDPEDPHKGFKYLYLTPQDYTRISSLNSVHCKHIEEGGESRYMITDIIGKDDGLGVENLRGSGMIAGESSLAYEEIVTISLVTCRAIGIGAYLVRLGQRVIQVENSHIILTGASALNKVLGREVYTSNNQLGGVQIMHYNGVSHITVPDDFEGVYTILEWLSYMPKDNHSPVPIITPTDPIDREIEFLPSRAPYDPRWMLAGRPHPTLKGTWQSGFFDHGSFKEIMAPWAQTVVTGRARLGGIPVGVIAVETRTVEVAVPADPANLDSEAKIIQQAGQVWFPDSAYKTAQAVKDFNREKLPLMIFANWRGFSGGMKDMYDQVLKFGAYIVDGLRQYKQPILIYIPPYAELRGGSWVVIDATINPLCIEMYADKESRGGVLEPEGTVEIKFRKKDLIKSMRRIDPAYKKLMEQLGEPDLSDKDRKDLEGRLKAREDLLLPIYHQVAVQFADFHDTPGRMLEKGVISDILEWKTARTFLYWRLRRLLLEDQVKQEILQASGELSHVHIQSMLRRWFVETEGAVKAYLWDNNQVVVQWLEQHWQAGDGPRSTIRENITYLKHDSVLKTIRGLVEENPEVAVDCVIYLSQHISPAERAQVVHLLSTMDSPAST

A word on the IC50: it is the concentration that gives 50% inhibition. Regarding `COc1ccccc1C(Cn1c(=O)n(C(C)(C)C(=O)O)c(=O)c2c(C)c(C#N)sc21)OC1CCOCC1` (stereo not shown) [Example 1, 2-(6-Cyano-1-(2-(2-methoxyphenyl)-2-((tetrahydro-2H-pyran-4-yl)oxy)ethyl)-5-methyl-2,4-dioxo-1,2-dihydrothiopheno[2,3-d]pyrimidin-3(4H)-yl)-2-methylpropionic acid], the IC50 at recombinant human ACC1 worked out at 38 nM. Still for that read-out and setting: with `COc1ccccc1[C@@H](Cn1c(=O)n(C(C)(C)C(=O)O)c(=O)c2c(C)c(C#N)sc21)OC1CCOCC1` [Example 2, (S)-2-(6-Cyano-1-(2-(2-methoxyphenyl)-2-((tetrahydro-2H-pyran-4-yl)oxy)ethyl)-5-methyl-2,4-dioxo-1,2-dihydrothiopheno[2,3-d]pyrimidin-3(4H)-yl)-2-methylpropionic acid] the figure was 16 nM; with `COc1ccccc1[C@H](Cn1c(=O)n(C(C)(C)C(=O)O)c(=O)c2c(C)c(C#N)sc21)OC1CCOCC1` [Example 3, (R)-2-(6-cyano-1-(2-(2-methoxyphenyl)-2-((tetrahydro-2H-pyran-4-yl)oxy)ethyl)-5-methyl-2,4-dioxo-1,2-dihydrothiopheno[2,3-d]pyrimidin-3(4H)-yl)-2-methylpropionic acid], 11.6 nM. On the same count and under the same terms, with `COc1ccc(F)cc1C(Cn1c(=O)n(C(C)(C)C(=O)O)c(=O)c2c(C)c(C#N)sc21)OC1CCOCC1` (stereo not shown) [Example 4, 2-(6-Cyano-1-(2-(5-fluoro-2-methoxyphenyl)-2-((tetrahydro-2H-pyran-4-yl)oxy)ethyl)-5-methyl-2,4-dioxo-1,2-dihydrothiopheno[2,3-d]pyrimidin-3(4H)-yl)-2-methylpropionic acid] the figure was 16.5 nM; with `CCOc1ccccc1C(Cn1c(=O)n(C(C)(C)C(=O)O)c(=O)c2c(C)c(C#N)sc21)OC1CCOCC1` (stereo not shown) [Example 6, 2-(6-Cyano-1-(2-(2-ethoxyphenyl)-2-((tetrahydro-2H-pyran-4-yl)oxy)ethyl)-5-methyl-2,4-dioxo-1,2-dihydrothiopheno[2,3-d]pyrimidin-3(4H)-yl)-2-methylpropionic acid], 21 nM.

For `COc1ccc(F)cc1[C@H](Cn1c(=O)n(C(C)(C)C(=O)O)c(=O)c2c(C)c(C#N)sc21)OC1CCOCC1` [Example 11, (R)-2-(6-Cyano-1-(2-(5-fluoro-2-methoxyphenyl)-2-((tetrahydro-2H-pyran-4-yl)oxy)ethyl)-5-methyl-2,4-dioxo-1,2-dihydrothiopheno[2,3-d]pyrimidin-3(4H)-yl)-2-methylpropionic acid], the IC50 at recombinant human ACC1 was 15 nM.

`Cc1c(C#N)sc2c1c(=O)n(C(C)(C)C(=O)O)c(=O)n2CC(OC1CCOCC1)c1ccccc1OCC1CC1` (stereo not shown) [Example 13, 2-(6-Cyano-1-(2-(2-(cyclopropylmethoxy)phenyl)-2-((tetrahydro-2H-pyran-4-yl)oxy)ethyl)-5-methyl-2,4-dioxo-1,2-dihydrothiopheno[2,3-d]pyrimidin-3(4H)-yl)-2-methylpropionic acid]: the IC50 on recombinant human ACC1 worked out at 36 nM.

For `Cc1c(C#N)sc2c1c(=O)n(C(C)(C)C(=O)O)c(=O)n2CC(OC1CCOCC1)c1cc(F)ccc1OCCF` (stereo not shown) [Example 14, 2-(6-Cyano-1-(2-(5-fluoro-2-(2-fluoroethoxy)phenyl)-2-((tetrahydro-2H-pyran-4-yl)oxy)ethyl)-5-methyl-2,4-dioxo-1,2-dihydrothiopheno[2,3-d]pyrimidin-3(4H)-yl)-2-methylpropionic acid], at recombinant human ACC1, the IC50 came to 7.9 nM.

Consider `CCOc1ccc(F)cc1C(Cn1c(=O)n(C(C)(C)C(=O)O)c(=O)c2c(C)c(C#N)sc21)OC1CCOCC1` (stereo not shown) [Example 15, 2-(6-Cyano-1-(2-(2-ethoxy-5-fluorophenyl)-2-((tetrahydro-2H-pyran-4-yl)oxy)ethyl)-5-methyl-2,4-dioxo-1,2-dihydrothiopheno[2,3-d]pyrimidin-3(4H)-yl)-2-methylpropionic acid], for which, at recombinant human ACC1, the IC50 was 4.4 nM.

As to `Cc1c(C#N)sc2c1c(=O)n(C(C)(C)C(=O)O)c(=O)n2CC(OC1CCOCC1)c1cc(F)ccc1OCC#N` (stereo not shown) [Example 17, 2-(6-Cyano-1-(2-(2-(cyanomethoxy)-5-fluorophenyl)-2-((tetrahydro-2H-pyran-4-yl)oxy)ethyl)-5-methyl-2,4-dioxo-1,2-dihydrothiopheno[2,3-d]pyrimidin-3(4H)-yl)-2-methylpropionic acid], on recombinant human ACC1, the half-maximal inhibitory concentration (IC50) is 20.7 nM.

In general, half-life refers to the time in which the quantity being followed falls by half. As usually defined, the MRT is a mean duration of stay, worked out from the concentration-time curve. As to `CCOc1ccc(F)cc1[C@H](Cn1c(=O)n(C(C)(C)C(=O)O)c(=O)c2c(C)c(C#N)sc21)OC1CCOCC1` [Example 19, (R)-2-(6-cyano-1-(2-(2-ethoxy-5-fluorophenyl)-2-((tetrahydro-2H-pyran-4-yl)oxy)ethyl)-5-methyl-2,4-dioxo-1,2-dihydrothiopheno[2,3-d]pyrimidin-3(4H)-yl)-2-methylpropionic acid], the results for the IC50 at recombinant human ACC1 and at recombinant human ACC2 were 2.7 nM and 6 nM, respectively. Also, the concentration at 0.5 h in data set [1] (oral, liver, 0.5 h after administration, read-out: drug concentration in the liver) came out at 46800 ± 14000 ng/mL. Moreover, the Cmax in data set [1] (po, plasma, read-out: Blood concentration Cmax) amounted to 920 ± 362 ng/mL. Also, the AUC(0-inf) in data set [1] (po, plasma, read-out: Curve area AUC0-∞) was determined as 1940 ± 1190 ng·h/mL. For the same compound, in data set [1] (po, plasma, read-out: Half-life period T½ (converted)), the half-life was 3.39 ± 0.65 h. Moreover, the MRT in data set [1] (po, plasma, read-out: Residence time MRT) worked out at 2.82 ± 0.34 h.

With `Cc1c(C#N)sc2c1c(=O)n(C(C)(C)C(=O)O)c(=O)n2C[C@H](OC1CCOCC1)c1cc(F)ccc1OCCF` [Example 21, (R)-2-(6-cyano-1-(2-(5-fluoro-2-(2-fluoroethoxy)phenyl)-2-((tetrahydro-2H-pyran-4-yl)oxy)ethyl)-5-methyl-2,4-dioxo-1,2-dihydrothiopheno[2,3-d]pyrimidin-3(4H)-yl)-2-methylpropionic acid], the values for the IC50 at recombinant human ACC1 and on recombinant human ACC2 were 6.4 nM and 22 nM, respectively.

The values are drawn from patent publication US11142531B2, “Cyano substituted heteroarylpyrimidinone derivative, preparation method and use thereof” (ZHEJIANG HISUN PHARMACEUTICAL CO., LTD., priority 2017, dated 2021).
